In US8192962B2, “Processes for detecting toxic substances” (Daikin Industries, Ltd., priority 2001, dated 2012):

Test system: Mitochondria-located protein genes
Test: DNA chip mRNA expression in yeast, mitochondria-located protein genes (Table 2)
Assay type: cell-based, Saccharomyces cerevisiae S288C
Settings: cells incubated two hours with the chemical substance
How it was run: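 S. cerevisiae S288C grown at 25° C in YPD were exposed in log phase for two hours to one toxic chemical at a growth-inhibiting, non-lethal concentration; untreated cells served as control. Poly(A) mRNA was reverse-transcribed with Cy3/Cy5-dUTP and hybridized to a whole-genome yeast DNA chip at 65° C for over 12 hours; values are fluorescence ratios versus untreated.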

In the case of Oc1cc(Cl)c(Cl)cc1Cl [(6), 2,4,5-trichlorophenol], the “The level of expressed mRNA in the presence of chemical substance/The level of expressed mRNA in the absence of chemical substance” value (yeast gene YAL039C) is reported as 0.8, the “The level of expressed mRNA in the presence of chemical substance/The level of expressed mRNA in the absence of chemical substance” value (yeast gene YBL022C) is reported as 1.2 and the “The level of expressed mRNA in the presence of chemical substance/The level of expressed mRNA in the absence of chemical substance” value (yeast gene YBL030C) is reported as 1.1. For the same molecule, the “The level of expressed mRNA in the presence of chemical substance/The level of expressed mRNA in the absence of chemical substance” value (yeast gene YBL038W) was 0.7, the “The level of expressed mRNA in the presence of chemical substance/The level of expressed mRNA in the absence of chemical substance” value (yeast gene YBL099W) was 0.9 and the “The level of expressed mRNA in the presence of chemical substance/The level of expressed mRNA in the absence of chemical substance” value (yeast gene YBR003W) was 1.2. The “The level of expressed mRNA in the presence of chemical substance/The level of expressed mRNA in the absence of chemical substance” value (yeast gene YBR044C) was 1.0, the “The level of expressed mRNA in the presence of chemical substance/The level of expressed mRNA in the absence of chemical substance” value (yeast gene YBR091C) was 0.7 and the “The level of expressed mRNA in the presence of chemical substance/The level of expressed mRNA in the absence of chemical substance” value (yeast gene YBR122C) was 1.1. For the same molecule, the “The level of expressed mRNA in the presence of chemical substance/The level of expressed mRNA in the absence of chemical substance” value (yeast gene YBR185C) was 1.2, the “The level of expressed mRNA in the presence of chemical substance/The level of expressed mRNA in the absence of chemical substance” value (yeast gene YBR221C) was 1.7 and the “The level of expressed mRNA in the presence of chemical substance/The level of expressed mRNA in the absence of chemical substance” value (yeast gene YBR251W) was 2.0. For the same molecule, the “The level of expressed mRNA in the presence of chemical substance/The level of expressed mRNA in the absence of chemical substance” value (yeast gene YBR282W) was 1.4, the “The level of expressed mRNA in the presence of chemical substance/The level of expressed mRNA in the absence of chemical substance” value (yeast gene YCL057W) was 1.8 and the “The level of expressed mRNA in the presence of chemical substance/The level of expressed mRNA in the absence of chemical substance” value (yeast gene YCR046C) was 0.8. For the same molecule, the “The level of expressed mRNA in the presence of chemical substance/The level of expressed mRNA in the absence of chemical substance” value (yeast gene YCR083W) was 2.4, the “The level of expressed mRNA in the presence of chemical substance/The level of expressed mRNA in the absence of chemical substance” value (yeast gene YDL067C) was 0.9 and the “The level of expressed mRNA in the presence of chemical substance/The level of expressed mRNA in the absence of chemical substance” value (yeast gene YDL181W) was 1.2. The “The level of expressed mRNA in the presence of chemical substance/The level of expressed mRNA in the absence of chemical substance” value (yeast gene YDL198C) was 0.8, the “The level of expressed mRNA in the presence of chemical substance/The level of expressed mRNA in the absence of chemical substance” value (yeast gene YDR079W) was 1.7 and the “The level of expressed mRNA in the presence of chemical substance/The level of expressed mRNA in the absence of chemical substance” value (yeast gene YDR178W) was 2.1. The “The level of expressed mRNA in the presence of chemical substance/The level of expressed mRNA in the absence of chemical substance” value (yeast gene YDR231C) was 2.2, the “The level of expressed mRNA in the presence of chemical substance/The level of expressed mRNA in the absence of chemical substance” value (yeast gene YDR258C) was 2.4 and the “The level of expressed mRNA in the presence of chemical substance/The level of expressed mRNA in the absence of chemical substance” value (yeast gene YDR298C) was 1.2. The “The level of expressed mRNA in the presence of chemical substance/The level of expressed mRNA in the absence of chemical substance” value (yeast gene YDR347W) was 1.2, the “The level of expressed mRNA in the presence of chemical substance/The level of expressed mRNA in the absence of chemical substance” value (yeast gene YDR377W) was 1.3 and the “The level of expressed mRNA in the presence of chemical substance/The level of expressed mRNA in the absence of chemical substance” value (yeast gene YDR529C) was 0.8. The “The level of expressed mRNA in the presence of chemical substance/The level of expressed mRNA in the absence of chemical substance” value (yeast gene YEL024W) was 1.1, the “The level of expressed mRNA in the presence of chemical substance/The level of expressed mRNA in the absence of chemical substance” value (yeast gene YEL039C) was 1.5 and the “The level of expressed mRNA in the presence of chemical substance/The level of expressed mRNA in the absence of chemical substance” value (yeast gene YER178W) was 2.5. For the same molecule, the “The level of expressed mRNA in the presence of chemical substance/The level of expressed mRNA in the absence of chemical substance” value (yeast gene YFL016C) was 1.3, the “The level of expressed mRNA in the presence of chemical substance/The level of expressed mRNA in the absence of chemical substance” value (yeast gene YGL018C) was 0.4 and the “The level of expressed mRNA in the presence of chemical substance/The level of expressed mRNA in the absence of chemical substance” value (yeast gene YGL187C) was 1.1. The “The level of expressed mRNA in the presence of chemical substance/The level of expressed mRNA in the absence of chemical substance” value (yeast gene YGL191W) was 1.6, the “The level of expressed mRNA in the presence of chemical substance/The level of expressed mRNA in the absence of chemical substance” value (yeast gene YGR008C) was 2.9 and the “The level of expressed mRNA in the presence of chemical substance/The level of expressed mRNA in the absence of chemical substance” value (yeast gene YGR028W) was 1.5. The “The level of expressed mRNA in the presence of chemical substance/The level of expressed mRNA in the absence of chemical substance” value (yeast gene YGR062C) was 0.9, the “The level of expressed mRNA in the presence of chemical substance/The level of expressed mRNA in the absence of chemical substance” value (yeast gene YGR076C) was 1.2 and the “The level of expressed mRNA in the presence of chemical substance/The level of expressed mRNA in the absence of chemical substance” value (yeast gene YGR082W) was 1.1. The “The level of expressed mRNA in the presence of chemical substance/The level of expressed mRNA in the absence of chemical substance” value (yeast gene YGR174C) was 1.4, the “The level of expressed mRNA in the presence of chemical substance/The level of expressed mRNA in the absence of chemical substance” value (yeast gene YGR244C) was 2.6 and the “The level of expressed mRNA in the presence of chemical substance/The level of expressed mRNA in the absence of chemical substance” value (yeast gene YHR008C) was 1.0. The “The level of expressed mRNA in the presence of chemical substance/The level of expressed mRNA in the absence of chemical substance” value (yeast gene YIL155C) was 1.4, the “The level of expressed mRNA in the presence of chemical substance/The level of expressed mRNA in the absence of chemical substance” value (yeast gene YJL096W) was 1.0 and the “The level of expressed mRNA in the presence of chemical substance/The level of expressed mRNA in the absence of chemical substance” value (yeast gene YJL102W) was 1.6. For the same molecule, the “The level of expressed mRNA in the presence of chemical substance/The level of expressed mRNA in the absence of chemical substance” value (yeast gene YJL133W) was 0.5, the “The level of expressed mRNA in the presence of chemical substance/The level of expressed mRNA in the absence of chemical substance” value (yeast gene YJL166W) was 0.7 and the “The level of expressed mRNA in the presence of chemical substance/The level of expressed mRNA in the absence of chemical substance” value (yeast gene YJL180C) was 1.3. The “The level of expressed mRNA in the presence of chemical substance/The level of expressed mRNA in the absence of chemical substance” value (yeast gene YJR045C) was 1.2 and the “The level of expressed mRNA in the presence of chemical substance/The level of expressed mRNA in the absence of chemical substance” value (yeast gene YJR077C) was 0.9.
